Experimental findings from US20230174556A1, “COMPOUNDS AS PROTEIN KINASE INHIBITORS” (Fochon Biosciences, Ltd., priority 2020, published 2023) are described below.

In this experiment the test system is OCI-LY10 (PI3Kδ dependent) cells. Kind of experiment: OCI-LY10 cell proliferation assay (MTS). It is filed as cell-based. The note with it: inhibition of OCI-LY10 cells proliferation, 72 h incubation, MTS readout at 490 nm. The protocol: MTS testing kit was purchased from Promega (Madison, WI, USA). The RPMI-1640, Fetal bovine serum and Penicillin-Streptomycin were purchased from BI (Biological Industries, Beit Haemek, Israel). Dimethyl sulfoxide (DMSO) was purchased from Sigma (St. Louis., MO, USA). OCI-LY10 cells were cultured in RPMI1640 supplemented with Penicillin-Streptomycin and 10% FBS.
To investigate whether a compound is able to inhibit the activity of PI3Kδ in cells, a mechanism-based assay using OCI-LY10 (PI3Kδ dependent) cells was developed. In this assay, inhibition of PI3Kδ was detected by the inhibition of OCI-LY10 cells proliferation. Cells were plated into 96-well plates at a density of 10000 cells/well. Plates were incubated at 37° C., with 5 % CO2 for 4 h. Compounds were serially diluted and added to the plates with the final compound concentrations as 10000, 3333.3, 1111.1, […], 123.5, 41.2, 13.7, 4.6 and 1.5 nM. Plates were incubated at 37° C., with 5 % CO2 for 72 h. 20 µl MTS was added into each well and the plates were incubated at 37° C., with 5 % CO2 for exactly 2 h. The absorbance was measured by a microplate reader at 490 nm. IC50 was calculated using GraphPad Prism 5.0 software.

For the molecule `Cc1csc2nc([C@H](C)n3nc(-c4cnc(OC(C)C)c(C#N)c4)c4c(N)ncnc43)c(-c3cccc(F)c3)c(=O)n12` [Example 106, (S)-5-(4-amino-1-(1-(6-(3-fluoropheny 1)-3-methyl-5-oxo-5H-thiazolo[3,2-α]pyrimidin-7-yl)ethyl)-1H-pyrazolo[3,4-d]pyrimidin-3-yl)-2-isopropoxynicotin onitrile], the IC50 is 43 nM.
As for “(S)-N-(5-(4-amino-1-(1-(3-methyl-5-o xo-6-phenyl-5H-thiazolo[3,2-α]pyridin -7-yl)ethyl)-1H-pyrazolo[3,4-d]pyrimi din-3-yl)-2-methoxypyridin-3-yl)meth anesulfonamide [Example 76]”, the IC50 stood at 1 nM.

A word on the IC50: it is the concentration that gives 50% inhibition.
